In US10646492B2, “Heterocyclylamines as PI3K inhibitors” (Incyte Corporation, priority 2011, dated 2020):

Target: PI3Kδ (p110δ/p85α) (Homo sapiens (Human), UniProt O00329)
Experiment: PI3Kδ scintillation proximity assay (Example A3)
Assay type: biochemical
Conditions: 20 μM ATP, 4 nM PI3Kδ, read-out: PI3Kδ SPA IC50
Description: PI3Kδ (p110δ/p85α) was purchased from Millipore (Bedford, Mass.). ATP, MgCl2, DTT, EDTA, MOPS and CHAPS were purchased from SigmaAldrich (St. Louis, Mo.). Wheat Germ Agglutinin (WGA) YSi SPA Scintillation Beads was purchased from GE healthcare life sciences (Piscataway, N.J.). The kinase reaction was conducted in polystyrene 384-well matrix white plate from Thermo Fisher Scientific in a final volume of 25 μL. Inhibitors were first diluted serially in DMSO and added to the plate wells before the addition of other reaction components. The final concentration of DMSO in the assay was 0.5%. The PI3K assays were carried out at room temperature in 20 mM MOPS, pH 6.7, 10 mM MgCl2, 5 mM DTT and CHAPS 0.03%. Reactions were initiated by the addition of ATP, the final reaction mixture consisted of 20 μM PIP2, 20 μM ATP, 0.2 μCi [γ-^33P]ATP, 4 nM PI3Kδ. […] 25 mM EDTA, 400 μM ATP. The final concentration of SPA beads was 1.0 mg/mL. […] IC50 determination was performed by fitting the curve of percent control activity versus the log of the inhibitor concentration using the GraphPad Prism 3.0 software.

Chain of PI3Kδ (p110δ/p85α) (O00329 whole entry): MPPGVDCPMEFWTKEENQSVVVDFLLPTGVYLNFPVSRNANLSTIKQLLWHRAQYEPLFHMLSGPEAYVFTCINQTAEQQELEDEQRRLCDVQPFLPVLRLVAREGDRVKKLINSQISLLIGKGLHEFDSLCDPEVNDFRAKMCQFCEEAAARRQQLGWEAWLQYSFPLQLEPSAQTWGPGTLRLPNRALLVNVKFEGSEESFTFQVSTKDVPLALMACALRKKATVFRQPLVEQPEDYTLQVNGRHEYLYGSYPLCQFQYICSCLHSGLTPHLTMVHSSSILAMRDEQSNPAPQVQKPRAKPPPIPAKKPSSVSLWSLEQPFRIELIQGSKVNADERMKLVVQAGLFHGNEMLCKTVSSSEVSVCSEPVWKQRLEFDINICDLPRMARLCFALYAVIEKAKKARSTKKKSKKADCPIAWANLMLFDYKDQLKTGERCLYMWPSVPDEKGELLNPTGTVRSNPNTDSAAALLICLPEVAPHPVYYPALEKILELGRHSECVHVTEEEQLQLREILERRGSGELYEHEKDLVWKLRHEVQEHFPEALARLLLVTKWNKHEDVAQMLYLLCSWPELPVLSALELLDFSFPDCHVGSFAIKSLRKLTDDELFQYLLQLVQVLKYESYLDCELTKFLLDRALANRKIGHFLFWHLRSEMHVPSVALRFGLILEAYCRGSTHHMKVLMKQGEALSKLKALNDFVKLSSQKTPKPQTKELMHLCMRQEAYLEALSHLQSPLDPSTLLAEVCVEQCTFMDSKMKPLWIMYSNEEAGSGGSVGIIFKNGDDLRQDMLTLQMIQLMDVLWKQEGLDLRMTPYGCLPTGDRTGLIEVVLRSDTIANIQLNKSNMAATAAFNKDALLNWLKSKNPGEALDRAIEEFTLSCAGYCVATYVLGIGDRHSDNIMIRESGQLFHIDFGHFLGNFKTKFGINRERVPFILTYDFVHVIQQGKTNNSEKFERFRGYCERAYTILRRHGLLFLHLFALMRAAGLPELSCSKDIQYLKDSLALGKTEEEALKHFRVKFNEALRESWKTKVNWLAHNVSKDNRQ
Chain of PI3Kδ (p110δ/p85α) (P27986 whole entry partner): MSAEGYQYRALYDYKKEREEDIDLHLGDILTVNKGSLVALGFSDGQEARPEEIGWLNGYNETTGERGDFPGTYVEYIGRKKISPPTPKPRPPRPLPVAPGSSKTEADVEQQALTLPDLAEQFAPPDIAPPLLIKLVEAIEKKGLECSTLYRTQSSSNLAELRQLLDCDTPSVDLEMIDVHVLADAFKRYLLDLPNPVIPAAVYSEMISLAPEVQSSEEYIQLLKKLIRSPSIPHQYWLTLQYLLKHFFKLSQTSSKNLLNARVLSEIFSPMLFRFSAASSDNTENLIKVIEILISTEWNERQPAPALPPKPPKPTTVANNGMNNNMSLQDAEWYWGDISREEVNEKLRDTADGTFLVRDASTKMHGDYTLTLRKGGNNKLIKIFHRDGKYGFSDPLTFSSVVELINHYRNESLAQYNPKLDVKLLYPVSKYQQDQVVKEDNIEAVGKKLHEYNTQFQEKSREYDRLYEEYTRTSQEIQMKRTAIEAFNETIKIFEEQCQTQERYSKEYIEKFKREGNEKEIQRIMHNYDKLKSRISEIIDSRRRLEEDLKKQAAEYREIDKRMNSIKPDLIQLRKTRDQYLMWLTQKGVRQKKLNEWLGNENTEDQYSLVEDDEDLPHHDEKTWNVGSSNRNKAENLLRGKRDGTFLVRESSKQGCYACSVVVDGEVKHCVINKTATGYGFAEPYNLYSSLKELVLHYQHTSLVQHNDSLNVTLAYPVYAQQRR

`CCOc1c(C(C)n2nc(C)c3c(N)ncnc32)cc(Cl)c(C#N)c1-c1ccc(C(=O)NC)nc1` (stereo not shown) [Example 333, 5-{3-[1-(4-amino-3-methyl-1H-pyrazolo[3,4-d]pyrimidin-1-yl)ethyl]-5-chloro-6-cyano-2-ethoxyphenyl}-N-methylpyridine-2-carboxamide] showed an IC50 of under 10 nM.
